Data on 11 compounds can be found in ChEMBL document CHEMBL1201862, “PubChem BioAssay data set” (2004).

Test systems include NCI-H522; SN12C; MDA-N; SK-MEL-5; CAKI-1; SK-MEL-2; HOP-62; SF-539; SW-620; HCT-15; HCT-116; M14; HOP-92; T47D; TK-10; UO-31; OVCAR-3; BT-549; HL-60.
Holding throughout (assay): NCI-60 cell line screen, 48 h

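How tested: cells in 96-well plates exposed to compound for 48 hours at five concentrations. Abbreviation: GI50, concentration required for 50% inhibition of growth.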 Calls of active or inactive are those of the source. Rule as the data show it: active = GI50 up to about 1.1 µM and inactive = higher.

As to `O=S(=O)(CC#CCS(=O)(=O)c1ccccc1)c1ccccc1`, the GI50 is 0.659 µM (active) in the assay with NCI-H522; 4.28 µM (inactive) in the assay with SN12C; 1.77 µM (inactive) in the assay on MDA-N; 4.9 µM (inactive) in the assay with SK-MEL-5; 1.77 µM (inactive) in the assay with CAKI-1; 5.69 µM (inactive) with SK-MEL-2. For the same compound, the GI50 in the assay with HOP-62 is 5.71 µM (inactive); with SF-539, 2.48 µM (inactive); in the assay on SW-620, 0.891 µM (active); in the assay on HCT-15, 1.35 µM; in the assay on HCT-116, 1.01 µM (active); with M14, 1.86 µM (inactive). For the same compound, the GI50 was 1.61 µM (inactive) in the assay on HOP-92; 1.95 µM (inactive) in the assay with T47D; 2.72 µM (inactive) in the assay on TK-10; 1.42 µM (inactive) in the assay on UO-31; 1.55 µM (inactive) with OVCAR-3; 3.13 µM (inactive) in the assay on BT-549. The GI50 in the assay on HL-60 is 3.1 µM (inactive).
Regarding `NC1C/C(=N\O)c2c(I)sc(I)c21` (stereo not drawn), the GI50 with NCI-H522 was 1.61 µM (inactive); in the assay with SN12C, 20.7 µM (inactive); with MDA-N, 19.8 µM (inactive); in the assay on SK-MEL-5, 14.8 µM (inactive); in the assay with CAKI-1, 15.2 µM (inactive); in the assay on SK-MEL-2, 17.5 µM (inactive). For the same compound, the GI50 in the assay with HOP-62 was 18.2 µM (inactive); in the assay on SF-539, 6.08 µM (inactive); in the assay on SW-620, 9.82 µM (inactive); in the assay with HCT-15 it was 13.4 µM; with HCT-116, 2.86 µM (inactive); in the assay with M14, 14.5 µM (inactive). In addition, the GI50 in the assay with HOP-92 is 17.1 µM (inactive); with T47D it was 23.2 µM (inactive); in the assay with TK-10, 16.9 µM (inactive); in the assay with UO-31 it was 13 µM (inactive); with OVCAR-3, 15.8 µM (inactive); with BT-549 it was 15.9 µM (inactive). In addition, the GI50 with HL-60 is 4.23 µM (inactive).
For `C(=C\c1ccccc1)/COc1ccccc1C(N1CCOCC1)n1nc2ccccc2n1` (stereo not drawn), the GI50 was 22 µM (inactive) with NCI-H522; 5.6 µM (inactive) in the assay with SN12C; 0.621 µM (active) with MDA-N; 3.33 µM (inactive) in the assay with SK-MEL-5; 15.2 µM (inactive) in the assay on CAKI-1; 7.23 µM (inactive) with SK-MEL-2. Also, the GI50 with HOP-62 is 4.71 µM (inactive); with SF-539, 2.59 µM (inactive); with SW-620, 4.28 µM (inactive); in the assay on HCT-15, 1.82 µM; with HCT-116 it was 5.31 µM (inactive); in the assay with M14 it was 2.58 µM (inactive). Moreover, the GI50 in the assay on HOP-92 was 5.15 µM (inactive); in the assay with T47D, 10.7 µM (inactive); with TK-10, 6.98 µM (inactive); in the assay on UO-31, 9.86 µM (inactive); in the assay on OVCAR-3 it was 2.18 µM (inactive); in the assay with BT-549, 7.55 µM (inactive). In addition, the GI50 with HL-60 was 0.352 µM (active).
As for `COc1ccc(P2(=S)SP(=S)(c3ccc(Cl)cc3)S2)cc1` (stereo not drawn), the GI50 with NCI-H522, with SN12C, in the assay on MDA-N, in the assay with SK-MEL-5, with CAKI-1 and in the assay on SK-MEL-2 was > 100 µM (inactive) throughout. Moreover, the GI50 in the assay on HOP-62 is > 100 µM (inactive); in the assay with SF-539, > 100 µM (inactive); in the assay with SW-620, > 100 µM (inactive); in the assay on HCT-15, more than 100 µM; with HCT-116, > 100 µM (inactive); with M14, > 100 µM (inactive). For the same compound, the GI50 with HOP-92, in the assay on T47D, in the assay on TK-10, in the assay on UO-31, with OVCAR-3 and in the assay on BT-549 was > 100 µM (inactive) in each case. Further, the GI50 in the assay with HL-60 was > 100 µM (inactive).
Consider `N#Cc1cc2cc3c4c(c2oc1=O)CCCN4CCC3`, for which the GI50 with NCI-H522, in the assay with SN12C, with MDA-N, with SK-MEL-5, in the assay on CAKI-1 and in the assay with SK-MEL-2 was > 100 µM (inactive) in each case. In addition, the GI50 is > 100 µM (inactive) in the assay on HOP-62; > 100 µM (inactive) in the assay on SF-539; > 100 µM (inactive) in the assay with SW-620; more than 100 µM in the assay on HCT-15; > 100 µM (inactive) with HCT-116; > 100 µM (inactive) with M14. Further, the GI50 with HOP-92, in the assay with T47D, with TK-10, in the assay with UO-31, in the assay with OVCAR-3 and with BT-549 was > 100 µM (inactive) each time. The GI50 with HL-60 is > 100 µM (inactive).
For the compound `C/C(=N\NC(=S)NC(C)(C)C)c1ccccn1`, the GI50 in the assay with NCI-H522 was 0.191 µM (active); with SN12C, 0.295 µM (active); with MDA-N, 0.131 µM (active); with SK-MEL-5, 0.153 µM (active); with CAKI-1, < 0.0333 µM (active); with SK-MEL-2 it was 0.408 µM (active). In addition, the GI50 is < 0.0222 µM (active) with HOP-62; 1.88 µM (inactive) in the assay on SF-539; < 0.01 µM (active) in the assay on SW-620; less than 0.01 µM in the assay on HCT-15; < 0.01 µM (active) in the assay with HCT-116; < 0.0314 µM (active) in the assay on M14. The GI50 with HOP-92 is 0.342 µM (active); in the assay with T47D it was < 0.01 µM (active); in the assay with TK-10, 0.358 µM (active); in the assay with UO-31 it was 0.189 µM (active); in the assay with OVCAR-3, < 0.01 µM (active); in the assay on BT-549, 3.1 µM (inactive). In addition, the GI50 with HL-60 was < 0.01 µM (active).
Take `NC(=O)[N+](=CC(=S)Nc1ccccc1Cl)C(N)=O`: the GI50 in the assay with NCI-H522, in the assay with SN12C, in the assay with MDA-N, in the assay with SK-MEL-5, with CAKI-1 and with SK-MEL-2 was > 100 µM (inactive) each time. Further, the GI50 with HOP-62 is > 100 µM (inactive); in the assay on SF-539 it was > 100 µM (inactive); in the assay on SW-620 it was > 100 µM (inactive); in the assay on HCT-15 it was more than 100 µM; with HCT-116 it was > 100 µM (inactive); in the assay on M14 it was > 100 µM (inactive). The GI50 in the assay on HOP-92 was > 100 µM (inactive); with T47D, > 100 µM (inactive); with TK-10, > 100 µM (inactive); in the assay with UO-31, > 100 µM (inactive); with OVCAR-3 it was > 100 µM (inactive); with BT-549, 86.9 µM (inactive). Moreover, the GI50 in the assay on HL-60 is > 100 µM (inactive).
As to `COC1CC(OC2C(C)OC(OC3C(C)OC(OC4C(C)OC(O[C@H]5CC[C@@]6(C)C(=CC[C@]7(O)[C@@H]6C[C@@H](OC(=O)/C=C/c6ccccc6)[C@@]6(C)[C@]7(O)CC[C@@]6(O)C(C)=O)C5)CC4OC)CC3OC)CC2OC)OC(C)C1O` (stereo partly drawn), the GI50 with NCI-H522 is > 12.5 µM (inactive); in the assay with SN12C, > 12.5 µM (inactive); in the assay with MDA-N it was > 12.5 µM (inactive); in the assay on SK-MEL-5, 11.4 µM (inactive); in the assay on CAKI-1, > 12.5 µM (inactive); in the assay on SK-MEL-2 it was > 12.5 µM (inactive). The GI50 is > 12.5 µM (inactive) in the assay on HOP-62; > 12.5 µM (inactive) with SF-539; > 12.5 µM (inactive) in the assay with SW-620; more than 12.5 µM with HCT-15; > 12.5 µM (inactive) with HCT-116; > 12.5 µM (inactive) in the assay with M14. The GI50 in the assay on HOP-92 is > 12.5 µM (inactive); in the assay on T47D, > 12.5 µM (inactive); in the assay with TK-10, > 12.5 µM (inactive); with UO-31, 3.11 µM (inactive); in the assay with OVCAR-3, 11 µM (inactive); in the assay on BT-549, > 12.5 µM (inactive). Further, the GI50 in the assay with HL-60 was 6.75 µM (inactive).
For `S=C1NNC(=S)NN1`, the GI50 in the assay with NCI-H522 is 0.432 µM (active); with SN12C, 0.198 µM (active); in the assay with MDA-N it was > 1 µM (active); in the assay with SK-MEL-5, 0.887 µM (active); with CAKI-1, 0.225 µM (active); in the assay on SK-MEL-2, > 1 µM (active). Further, the GI50 is 0.292 µM (active) with HOP-62; > 1 µM (active) with SF-539; 0.218 µM (active) in the assay on SW-620; more than 1 µM in the assay with HCT-15; 0.23 µM (active) in the assay with HCT-116; 0.533 µM (active) in the assay on M14. Besides, the GI50 in the assay with HOP-92 is > 1 µM (active); in the assay on T47D, 0.951 µM (active); with TK-10, > 1 µM (active); in the assay on UO-31 it was > 1 µM (active); with OVCAR-3 it was > 1 µM (active); in the assay on BT-549, 0.522 µM (active). Also, the GI50 in the assay with HL-60 was > 1 µM (active).
On to `CC1=C(Br)C(=O)C(C)=C(Br)C1=O.Cc1c(O)c(Br)c(C)c(O)c1Br`, for which the GI50 is 1.99 µM (inactive) with NCI-H522; 1.8 µM (inactive) in the assay with SN12C; 1.81 µM (inactive) in the assay with MDA-N; 4.22 µM (inactive) with SK-MEL-5; 2.14 µM (inactive) in the assay with CAKI-1; 3.53 µM (inactive) with SK-MEL-2. Moreover, the GI50 in the assay on HOP-62 was 12 µM (inactive); in the assay on SF-539 it was 4.78 µM (inactive); in the assay with SW-620, 1.97 µM (inactive); in the assay on HCT-15, 2.07 µM; in the assay with HCT-116, 1.69 µM (inactive); with M14 it was 1.67 µM (inactive). Moreover, the GI50 with HOP-92 is 1.78 µM (inactive); in the assay with T47D, 2.52 µM (inactive); with TK-10 it was 1.64 µM (inactive); with UO-31, 1.85 µM (inactive); in the assay on OVCAR-3, 1.83 µM (inactive); in the assay on BT-549, 5.33 µM (inactive). Besides, in the assay with HL-60, the GI50 is 1.12 µM (active).
Consider `Cc1ccc(CSC(=N)Nc2ccccc2)cc1C`, for which the GI50 is 15.8 µM (inactive) with NCI-H522; 18.9 µM (inactive) in the assay with SN12C; 18.9 µM (inactive) in the assay with MDA-N; 16.1 µM (inactive) in the assay with SK-MEL-5; 19.9 µM (inactive) in the assay with CAKI-1; 16.7 µM (inactive) in the assay with SK-MEL-2. The GI50 is 23.7 µM (inactive) in the assay with HOP-62; 22.9 µM (inactive) in the assay with SF-539; 38.3 µM (inactive) in the assay with SW-620; 23.5 µM in the assay with HCT-15; 16.6 µM (inactive) in the assay on HCT-116; 19.1 µM (inactive) in the assay with M14. Further, the GI50 was 16 µM (inactive) with HOP-92; 17.2 µM (inactive) with T47D; 28.5 µM (inactive) with TK-10; 19.3 µM (inactive) with OVCAR-3; 22.3 µM (inactive) with BT-549; 30.3 µM (inactive) in the assay with HL-60.
